Measurements reported in paper PMC11981937 (Nature, 2025).
Values joined by “and” are separate entries in the source; they are usually repeats but may differ in a detail not shown here. Equal values may be shown once. Read-outs that look alike come from different tables or passages of the source.

Legend:
[1] = Post-exposure Syrian golden hamster model, body weight; conditions: in vivo
SARS-CoV-2 = assay type: in vivo, Syrian golden hamster; conditions: for Infectious virus in the lung (TCID50), Copy number, individual animal / Infectious virus in the lung (TCID50), Log 10, individual animal / Viral load (viral RNA) in the lung, Copy number, individual animal / Viral load (viral RNA) in the lung, Log 10, individual animal / Infectious virus in the lung (TCID50), average Log 10 / Infectious virus in the lung (TCID50), median Log 10 / Viral load (viral RNA) in the lung, average Log 10 / Viral load (viral RNA) in the lung, median Log 10: 250mg/kg/ BID; for Infectious virus in the lung (TCID50), average Log 10 / Infectious virus in the lung (TCID50), median Log 10 / Viral load (viral RNA) in the lung, average Log 10 / Viral load (viral RNA) in the lung, median Log 10: n=5
[2] = tested on: SARS-CoV-2 (USA-WA1/2020); design: species or system Syrian golden hamster; conditions: hamster, in vivo

CC(C)(C)[C@H](NC(=O)C(F)(F)F)C(=O)N1C[C@H]2[C@@H]([C@H]1C(=O)N[C@H](C#N)C[C@@H]1CCNC1=O)C2(C)C [nirmatrelvir, reference compound]
Average body weight change (%) on day 4 compared to day 0 [1]: -2.756% and -3.747% and -5.087% | Infectious virus in the lung (TCID50), Copy number, individual animal (SARS-CoV-2; 10 h post exposure): 2.74E+02 and 1.40E+02 and 3.86E+02 | Infectious virus in the lung (TCID50), Log 10, individual animal (SARS-CoV-2; 10 h post exposure): 2.44 Log 10 and 3.68 Log 10 and 2.14 Log 10 and 3.67 Log 10 and 2.59 Log 10 | Viral load (viral RNA) in the lung, Copy number, individual animal (SARS-CoV-2; 10 h post exposure): 3.26E+07 and 1.08E+07 and 4.11E+07 and 4.76E+07 and 5.79E+06 | Viral load (viral RNA) in the lung, Log 10, individual animal (SARS-CoV-2; 10 h post exposure): 7.51 Log 10 and 7.03 Log 10 and 7.61 Log 10 and 7.68 Log 10 and 6.76 Log 10 | Infectious virus in the lung (TCID50), average Log 10 (SARS-CoV-2; 10 h post exposure): 2.90 Log 10 | Infectious virus in the lung (TCID50), median Log 10 (SARS-CoV-2; 10 h post exposure): 2.59 Log 10 | Viral load (viral RNA) in the lung, average Log 10 (SARS-CoV-2; 10 h post exposure): 7.32 Log 10 | Viral load (viral RNA) in the lung, median Log 10 (SARS-CoV-2; 10 h post exposure): 7.51 Log 10 | Infectious virus in the lung (TCID50), Copy number, individual animal (SARS-CoV-2; 24 h post exposure): 3.74E+03 and 5.43E+02 and 1.15E+04 and 7.40E+03 | Infectious virus in the lung (TCID50), Log 10, individual animal (SARS-CoV-2; 24 h post exposure): 3.57 Log 10 and 2.74 Log 10 and 4.06 Log 10 and 3.67 Log 10 and 3.87 Log 10 | Viral load (viral RNA) in the lung, Copy number, individual animal (SARS-CoV-2; 24 h post exposure): 4.02E+07 and 9.08E+07 and 1.10E+07 and 3.49E+07 and 2.71E+07 | Viral load (viral RNA) in the lung, Log 10, individual animal (SARS-CoV-2; 24 h post exposure): 7.60 Log 10 and 7.96 Log 10 and 7.04 Log 10 and 7.54 Log 10 and 7.43 Log 10 | Infectious virus in the lung (TCID50), average Log 10 (SARS-CoV-2; 24 h post exposure): 3.58 Log 10 | Infectious virus in the lung (TCID50), median Log 10 (SARS-CoV-2; 24 h post exposure): 3.67 Log 10 | Viral load (viral RNA) in the lung, average Log 10 (SARS-CoV-2; 24 h post exposure): 7.52 Log 10 | Viral load (viral RNA) in the lung, median Log 10 (SARS-CoV-2; 24 h post exposure): 7.54 Log 10 | Infectious virus in the lung (TCID50), Copy number, individual animal (SARS-CoV-2; 48 h post exposure): 5.70E+02 and 4.90E+02 and 1.00E+02 and 6.63E+02 and 1.50E+03 | Infectious virus in the lung (TCID50), Log 10, individual animal (SARS-CoV-2; 48 h post exposure): 2.76 Log 10 and 2.69 Log 10 and 2.00 Log 10 and 2.82 Log 10 and 3.17 Log 10 | Viral load (viral RNA) in the lung, Copy number, individual animal (SARS-CoV-2; 48 h post exposure): 1.41E+08 and 2.05E+07 and 3.56E+08 and 4.63E+07 and 6.23E+07 | Viral load (viral RNA) in the lung, Log 10, individual animal (SARS-CoV-2; 48 h post exposure): 8.15 Log 10 and 7.31 Log 10 and 8.55 Log 10 and 7.67 Log 10 and 7.79 Log 10 | Infectious virus in the lung (TCID50), average Log 10 (SARS-CoV-2; 48 h post exposure): 2.69 Log 10 | Infectious virus in the lung (TCID50), median Log 10 (SARS-CoV-2; 48 h post exposure): 2.76 Log 10 | Viral load (viral RNA) in the lung, average Log 10 (SARS-CoV-2; 48 h post exposure): 7.89 Log 10 | Viral load (viral RNA) in the lung, median Log 10 (SARS-CoV-2; 48 h post exposure): 7.79 Log 10 | reduction of lung viral RNA load and infectious virus (in words) (SARS-CoV-2; post-exposure, 250 mg per kg BID): not significant | Infectious SARS-CoV2 virus in the lung, Avg [2]: 4651963 PFU/g Lung | Infectious SARS-CoV2 virus in the lung, Log10, Avg [2]: 5.697 Log10 PFU/g Lung | SARS-CoV2 viral load (viral RNA) in the lung, Avg [2]: 46452968 RNA copies/mL | SARS-CoV2 viral load (viral RNA) in the lung, Log10, Avg [2]: 6.876 Log10 RNA copies/mL
